Activity calls are given as the source filed them.
Key:
Beta-galactosidase = Beta-galactosidase (Escherichia coli, UniProt Q8VNN2); experiment: Dose response counterscreen for EBI2 assay utilizing the enzyme, b-galactosidase.; format: functional
[1] = biological target: Disintegrin and metalloproteinase domain-containing protein 17 (Homo sapiens, UniProt P78536); experiment: exosite inhibitors of ADAM17, dose response, biochemical (AID 743260)
[2] = inhibition of ADAM10 peptide cleavage – biochemical, FRET peptide substrate, recombinant human ADAM10, selectivity assay for ADAM17 exosite inhibitor project, dose response (AID 743259);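 further: ADAM10 enzyme cleaving a FRET peptide substrate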
[3] = blockers of HIV-1 envelope-mediated cell-cell fusion – cherry-pick, dose response (AID 652057); format: functional, cell-based
[4] = viability loss in CEM21 cells – cell-based, CellTiter-Glo luminescence, cherry-picked, cytotoxicity control for viral fusion inhibitor project, dose response (AID 652042); format: functional;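 further: potency for signal decrease meaning cytotoxicity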
[5] = blockers of HIV-1 ZM109 envelope-driven cell-cell fusion – HeLa effector, CEM target cells, luciferase, cherry-pick, dose response (AID 652058); format: functional, cell-based;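 further: luciferase signal from HIV-1 Env mediated cell-cell fusion of effector and target cells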
[6] = HIV-1 AD8 envelope cell-cell fusion blockers – cherry-pick, dose response (AID 652062); format: functional, cell-based;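 further: luciferase signal from cell-cell fusion driven by HIV-1 clade B AD8 Env; potency is for inhibitors of fusion seen as a drop in luminescence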
HEK293 = experiment: viability loss in HEK293T cells – cell-based, ATP luminescence, cherry-pick samples, cytotoxicity control, dose response (AID 687005); format: functional; conditions: Homo sapiens;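 further: cells exposed to compound for 48 hours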
[7] = HEK293 Cytotoxicity Assay Measured in Cell-Based System Using Plate Reader - 7071-01_Inhibitor_Dose_CherryPick_Activity_Set2.; format: functional
[8] = Late stage counterscreen for inhibitors of Trypanosoma brucei methionyl tRNA synthetase (MetRS): Luminescence-based cell-based high throughput dose response assay to identify compounds that are cytotoxic to Jurkat human T lymphocyte cells.; format: functional
[9] = Late stage assay provider results from the probe development effort to identify selective inhibitors of heat shock protein 90 (HSP90): Absorbance-based cell proliferation assay in SKBR3 cells.; format: functional; conditions: SK-BR-3
[10] = Late stage assay provider results from the probe development effort to identify selective inhibitors of heat shock protein 90 (HSP90): Absorbance-based cell proliferation assay in MCF7 cells.; format: functional
Beta-lactamase [11] = biological target: Beta-lactamase (Pseudomonas aeruginosa, UniProt Q79MP6);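 further: biochemical dose-response test of metallo-beta-lactamase enzyme inhibition, read out by epi-absorbance; purified recombinant IMP-1 metallo-beta-lactamase with nitrocefin as substrate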
Beta-lactamase (Pseudomonas aeruginosa, UniProt Q79MP6), sequence (Q79MP6 whole entry): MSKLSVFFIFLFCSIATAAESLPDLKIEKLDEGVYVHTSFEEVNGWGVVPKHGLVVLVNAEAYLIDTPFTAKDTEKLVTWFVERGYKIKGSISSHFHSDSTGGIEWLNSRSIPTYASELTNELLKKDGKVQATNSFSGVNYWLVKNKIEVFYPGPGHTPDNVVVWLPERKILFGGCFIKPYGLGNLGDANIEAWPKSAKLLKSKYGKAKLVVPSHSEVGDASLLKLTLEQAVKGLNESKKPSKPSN

Beta-lactamase [12] = biological target: Beta-lactamase (Salmonella choleraesuis (strain SC-B67), UniProt Q5J463)
Beta-lactamase (Salmonella choleraesuis (strain SC-B67), UniProt Q5J463), sequence (Q5J463 whole entry): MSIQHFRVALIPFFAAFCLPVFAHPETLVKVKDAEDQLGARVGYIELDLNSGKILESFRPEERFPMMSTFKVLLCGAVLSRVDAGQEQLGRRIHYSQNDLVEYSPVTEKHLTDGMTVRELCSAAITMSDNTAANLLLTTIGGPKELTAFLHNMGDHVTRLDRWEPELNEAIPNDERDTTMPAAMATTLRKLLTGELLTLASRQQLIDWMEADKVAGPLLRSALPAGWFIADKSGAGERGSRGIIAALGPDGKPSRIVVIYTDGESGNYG

[13] = biological target: T1, Methionyl-tRNA synthetase, putative (Trypanosoma brucei brucei, UniProt Q38C91); format: functional, Trypanosoma brucei brucei strain 927/4 GUTat10.1
T1 sequence (Q38C91 whole entry): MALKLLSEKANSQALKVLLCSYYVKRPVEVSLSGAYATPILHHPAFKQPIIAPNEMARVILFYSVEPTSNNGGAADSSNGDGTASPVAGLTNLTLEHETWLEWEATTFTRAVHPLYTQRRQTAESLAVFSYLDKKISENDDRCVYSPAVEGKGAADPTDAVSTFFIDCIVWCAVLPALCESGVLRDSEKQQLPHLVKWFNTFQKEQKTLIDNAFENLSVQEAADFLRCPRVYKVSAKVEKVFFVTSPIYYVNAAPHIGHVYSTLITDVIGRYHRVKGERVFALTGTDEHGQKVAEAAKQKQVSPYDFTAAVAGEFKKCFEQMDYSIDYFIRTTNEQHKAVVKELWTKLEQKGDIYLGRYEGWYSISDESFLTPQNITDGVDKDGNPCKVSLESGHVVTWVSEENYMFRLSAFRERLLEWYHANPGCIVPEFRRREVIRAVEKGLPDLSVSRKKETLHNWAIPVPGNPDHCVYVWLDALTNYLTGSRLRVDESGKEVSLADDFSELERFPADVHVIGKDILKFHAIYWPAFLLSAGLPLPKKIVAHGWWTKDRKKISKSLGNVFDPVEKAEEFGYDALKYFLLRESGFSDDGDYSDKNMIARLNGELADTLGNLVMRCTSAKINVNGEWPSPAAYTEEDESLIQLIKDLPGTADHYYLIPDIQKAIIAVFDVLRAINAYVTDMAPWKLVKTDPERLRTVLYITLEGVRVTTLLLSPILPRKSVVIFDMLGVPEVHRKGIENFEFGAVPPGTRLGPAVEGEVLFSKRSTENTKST

[14] = Counterscreen for inhibitors of Trypanosoma brucei methionyl tRNA synthetase (MetRS): Luminescence-based cell-based high throughput dose response assay to identify compounds that are cytotoxic to Jurkat human T lymphocyte cells.; format: functional
[15] = biological target: T1, Methionyl-tRNA synthetase, putative; format: functional, Trypanosoma brucei brucei strain 927/4 GUTat10.1; remark: listed apart in the source
[16] = biological target: T2, Probable nicotinate-nucleotide adenylyltransferase (Staphylococcus aureus (strain N315), UniProt P65502); format: functional, Staphylococcus aureus subsp. aureus N315;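 on IC50 Mean: confirmatory dose-response retesting of NadD inhibitor hits first found in an ultra-high-throughput screen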
T2 sequence (P65502 whole entry): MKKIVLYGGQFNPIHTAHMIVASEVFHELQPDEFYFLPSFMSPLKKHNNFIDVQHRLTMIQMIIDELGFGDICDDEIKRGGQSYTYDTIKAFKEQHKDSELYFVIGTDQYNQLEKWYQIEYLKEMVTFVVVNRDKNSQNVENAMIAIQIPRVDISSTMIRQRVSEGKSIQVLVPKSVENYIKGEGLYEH

[17] = biological target: T2, Probable nicotinate-nucleotide adenylyltransferase; format: functional, Staphylococcus aureus subsp. aureus N315; conditions: read-out: IC50_Mean

Beta-galactosidase, sequence (Q8VNN2 whole entry, the tested form may be a part): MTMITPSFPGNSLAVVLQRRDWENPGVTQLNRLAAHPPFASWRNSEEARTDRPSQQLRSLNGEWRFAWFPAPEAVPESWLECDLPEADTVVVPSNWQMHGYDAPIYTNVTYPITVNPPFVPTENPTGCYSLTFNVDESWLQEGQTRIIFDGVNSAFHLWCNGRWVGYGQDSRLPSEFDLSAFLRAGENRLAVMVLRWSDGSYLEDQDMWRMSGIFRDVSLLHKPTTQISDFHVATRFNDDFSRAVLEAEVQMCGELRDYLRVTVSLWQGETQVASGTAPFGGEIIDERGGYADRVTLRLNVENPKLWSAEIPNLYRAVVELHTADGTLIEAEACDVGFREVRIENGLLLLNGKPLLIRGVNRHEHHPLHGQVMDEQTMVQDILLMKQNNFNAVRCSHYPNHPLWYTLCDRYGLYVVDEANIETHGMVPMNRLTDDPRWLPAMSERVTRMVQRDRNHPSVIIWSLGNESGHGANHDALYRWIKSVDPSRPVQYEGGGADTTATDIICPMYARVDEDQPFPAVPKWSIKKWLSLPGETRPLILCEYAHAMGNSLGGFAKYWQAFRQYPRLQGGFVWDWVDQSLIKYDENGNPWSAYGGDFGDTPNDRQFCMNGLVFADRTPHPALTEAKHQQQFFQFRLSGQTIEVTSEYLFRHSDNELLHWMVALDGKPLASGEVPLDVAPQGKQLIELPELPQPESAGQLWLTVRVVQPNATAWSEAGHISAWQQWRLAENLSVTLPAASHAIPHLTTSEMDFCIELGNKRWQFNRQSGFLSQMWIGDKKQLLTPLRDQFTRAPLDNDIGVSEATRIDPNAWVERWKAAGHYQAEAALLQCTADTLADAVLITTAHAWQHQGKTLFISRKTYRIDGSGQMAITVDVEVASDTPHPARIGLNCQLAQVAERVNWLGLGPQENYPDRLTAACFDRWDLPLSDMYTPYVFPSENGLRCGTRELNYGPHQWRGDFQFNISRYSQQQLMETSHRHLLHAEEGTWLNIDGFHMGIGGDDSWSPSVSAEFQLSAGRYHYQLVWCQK
Disintegrin and metalloproteinase domain-containing protein 17, sequence (P78536 whole entry, the tested form may be a part): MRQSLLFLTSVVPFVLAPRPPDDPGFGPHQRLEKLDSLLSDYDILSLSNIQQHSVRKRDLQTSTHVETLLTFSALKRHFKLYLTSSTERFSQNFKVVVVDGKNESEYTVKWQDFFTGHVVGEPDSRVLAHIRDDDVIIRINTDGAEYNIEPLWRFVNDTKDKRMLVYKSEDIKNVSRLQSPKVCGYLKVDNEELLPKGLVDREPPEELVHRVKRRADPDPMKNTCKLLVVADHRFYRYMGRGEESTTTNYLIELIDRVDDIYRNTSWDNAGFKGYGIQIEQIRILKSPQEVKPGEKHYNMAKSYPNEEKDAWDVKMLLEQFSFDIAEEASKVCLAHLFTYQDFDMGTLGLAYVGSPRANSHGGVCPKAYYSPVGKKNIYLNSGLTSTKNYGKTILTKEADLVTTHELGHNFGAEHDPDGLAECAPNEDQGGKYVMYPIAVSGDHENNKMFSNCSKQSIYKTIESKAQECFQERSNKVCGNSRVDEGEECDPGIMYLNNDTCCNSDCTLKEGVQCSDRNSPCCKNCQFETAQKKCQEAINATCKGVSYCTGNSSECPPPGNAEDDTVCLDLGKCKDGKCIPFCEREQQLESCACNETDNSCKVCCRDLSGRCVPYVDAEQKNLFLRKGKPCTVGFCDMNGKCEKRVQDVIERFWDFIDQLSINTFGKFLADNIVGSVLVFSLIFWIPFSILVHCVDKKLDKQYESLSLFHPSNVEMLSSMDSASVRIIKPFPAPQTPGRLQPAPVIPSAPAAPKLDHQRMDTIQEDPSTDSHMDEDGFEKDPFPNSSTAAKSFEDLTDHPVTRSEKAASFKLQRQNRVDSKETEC

COc1ccccc1N1CCN(C(=O)c2cc3cc(C)ccc3[nH]2)CC1
IC50 (Beta-galactosidase): > 80 µM (inactive)

C[C@H](c1ccccc1)N1C[C@H](COCc2ccccc2)Oc2cc(N3CC[C@@H](O)C3)ccc2S1(=O)=O
IC50 [1]: > 69.5 µM (inactive)
IC50 [2]: 16 µM (inactive)

C[C@H](CO)N1C[C@H](C)[C@H](CN(C)S(=O)(=O)c2ccccc2)Oc2ccc(NC(=O)Nc3cccc4ccccc34)cc2CC1=O
AC50 [3]: < 0.26 µM (active)
AC50 [4]: 31.7 µM (active)
AC50 [5]: < 0.26 µM (active)
AC50 [6]: 0.685 µM (active)

C[C@@H]1CCCCO[C@@H](CN(C)S(=O)(=O)c2ccc(F)cc2)[C@@H](C)CN([C@@H](C)CO)C(=O)c2cc(NS(=O)(=O)c3ccc(F)cc3)ccc2O1
AC50 (HEK293): 17.1 µM (active)
AC50 [7]: 17.1 µM (active)

O=C(NCc1nc2ccccc2[nH]1)C1=C[C@H](c2ccc(Br)cc2)C[C@H](OCCCCO)O1
IC50 [8]: 66.7 µM (inactive)

O=C(Nc1ccc(F)cc1)c1coc(=O)c(Br)c1
IC50 [9]: 8.8 µM (active)
IC50 [10]: 3.4 µM (active)

O=C1OC(=O)/C(=C\Nc2cnc3ccccc3c2)C=C1Br
IC50 [9]: 17.4 µM (inactive)
IC50 [10]: 12.1 µM (inactive)

COCCCn1/c(=N/C(=O)c2ccccc2)c(C#N)cc2c(=O)n3cccc(C)c3nc21
IC50 (Beta-lactamase [11]): > 59.6 µM (inactive)
IC50 (Beta-lactamase [12]): > 59.6 µM (inactive)

CCOC(=O)N1CCC(Nc2c(Nc3ccc(F)cc3)c(=O)c2=O)CC1
IC50 [13]: 7.98 µM (active)
IC50 [14]: 83.3 µM (inactive)
IC50 [15]: 4.36 µM (active)
IC50 [8]: > 83.3 µM (inactive)

CCn1cc(/C=N/NC(=O)c2cc3c(ccc4ccccc43)o2)c2ccccc21
IC50 [16]: 40.7 µM (active)
IC50 [17]: 80 µM (inactive)
